For this test, the system named is L1210 leukemia ip in BDF1 mice, survival T/C. Nature of the test: NCI In Vivo Anticancer Drug Screen. Data for tumor model L1210 Leukemia (intraperitoneal) in B6D2F1 (BDF1) mice. The settings on record: endpoint: mean survival time, higher = longer survival. A digest of the protocol: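 Transplantable tumor model; survival measured in treated vs vehicle control mice. Value = treated/control.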

[1] abbreviates: dose: 100.0 mg/kg/injection, schedule: Q01DX009 (ip), vehicle: Klucel (hydroxypropylcellulose) (HPC).
[2] abbreviates: dose: 200.0 mg/kg/injection, schedule: Q01DX009 (ip), vehicle: Klucel (hydroxypropylcellulose) (HPC).
The mark [3] stands for this setting: dose: 200.0 mg/kg/injection, schedule: Q04DX003 (ip), vehicle: Klucel (hydroxypropylcellulose) (HPC).
[4] abbreviates: dose: 400.0 mg/kg/injection, schedule: Q01DX009 (ip), vehicle: Klucel (hydroxypropylcellulose) (HPC).
Setting [5] is: dose: 400.0 mg/kg/injection, schedule: Q04DX003 (ip), vehicle: Klucel (hydroxypropylcellulose) (HPC).
[6] abbreviates: dose: 100.0 mg/kg/injection, schedule: Q01DX001 (ip), vehicle: saline.
The mark [7] stands for this setting: dose: 200.0 mg/kg/injection, schedule: Q01DX001 (ip), vehicle: saline.
[8] abbreviates: dose: 400.0 mg/kg/injection, schedule: Q01DX001 (ip), vehicle: saline.
Setting [9] is: dose: 100.0 mg/kg/injection, schedule: Q04DX003 (ip), vehicle: saline with Tween-80.
The mark [10] stands for this setting: dose: 100.0 mg/kg/injection, schedule: Q04DX002 (ip), vehicle: saline.
The mark [11] stands for this setting: dose: 200.0 mg/kg/injection, schedule: Q04DX002 (ip), vehicle: saline.

The values that follow come from PubChem BioAssay AID248 (DTP/NCI, 2004).

Values joined by “and” are separate entries in the source; they are usually repeats but may differ in a detail not shown here. Identical values can stand only once. Toxic doses and inconclusive results are not listed.

Take `CC(C#N)(/C=C/c1ccccc1)Nc1ccccc1N` (stereo not drawn): the T/C was 95 % of control under setting [1]; 94 % of control (dose: 100.0 mg/kg/injection, schedule: Q04DX003 (ip), vehicle: Klucel (hydroxypropylcellulose) (HPC)); 95 % of control under setting [2]; 98 % of control under setting [3]; 96 % of control under setting [4]; 93 % of control under setting [5].
As for `O=S(=O)(O)C(O)c1ccc(C(O)S(=O)(=O)O)cc1` (stereo not drawn), the T/C runs as follows: under setting [6], 107 % of control; (dose: 100.0 mg/kg/injection, schedule: Q04DX003 (ip), vehicle: saline) 92 % of control; under setting [7], 107 % of control; (dose: 200.0 mg/kg/injection, schedule: Q04DX003 (ip), vehicle: saline) 102 % of control; under setting [8], 105 % of control; (dose: 400.0 mg/kg/injection, schedule: Q04DX003 (ip), vehicle: saline) 95 % of control.
On to `CCc1ccc(NC(=O)Nc2ccc(Cl)c(Cl)c2)cc1`, for which the T/C was 90 % of control under setting [1], 103 % of control under setting [2] and 103 % of control under setting [4].
As to `FC(F)(F)COP1(OCC(F)(F)F)=NP(OCC(F)(F)F)(OCC(F)(F)F)=NP(c2ccccc2)(c2ccccc2)=N1`, the T/C by setting is: (dose: 25.0 mg/kg/injection, schedule: Q01DX009 (ip), vehicle: saline) 93 % of control; (dose: 50.0 mg/kg/injection, schedule: Q01DX009 (ip), vehicle: saline) 96 % of control; (dose: 100.0 mg/kg/injection, schedule: Q01DX009 (ip), vehicle: saline) 86 % of control.
Regarding `O=C(O)COc1c(Cl)cc(Cl)c2cccnc12`, the T/C by setting is: (dose: 100.0 mg/kg/injection, schedule: Q01DX001 (ip), vehicle: carboxymethylcellulose (CMC)) 93 % of control; (dose: 200.0 mg/kg/injection, schedule: Q01DX001 (ip), vehicle: carboxymethylcellulose (CMC)) 101 % of control.
Consider `O=C1C=CC(=O)N1c1cccc(N2C(=O)C=CC2=O)c1`, for which the T/C was 102 % of control (dose: 8.0 mg/kg/injection, schedule: Q04DX003 (ip), vehicle: saline) and 95 % of control (dose: 16.0 mg/kg/injection, schedule: Q04DX003 (ip), vehicle: saline).
Take `CS(=O)(=O)OCCCN(CCCOS(C)(=O)=O)c1ccc(C=Nc2ccc(-c3csc(COc4ccc(Cl)cc4)n3)cc2)cc1`: the T/C is, setting by setting: (dose: 100.0 mg/kg/injection, schedule: Q01DX009 (ip), vehicle: saline with Tween-80) 97 % of control; (dose: 200.0 mg/kg/injection, schedule: Q01DX009 (ip), vehicle: saline with Tween-80) 94 % of control; (dose: 400.0 mg/kg/injection, schedule: Q01DX009 (ip), vehicle: saline with Tween-80) 94 % of control.
Consider `CCCCCCCCCCCCn1cnc2c(N)ncnc21`, for which the T/C (dose: 12.5 mg/kg/injection, schedule: Q01DX005 (ip), vehicle: other) was 101 % of control; the T/C (dose: 25.0 mg/kg/injection, schedule: Q01DX005 (ip), vehicle: other) is 96 % of control; the T/C (dose: 50.0 mg/kg/injection, schedule: Q01DX005 (ip), vehicle: other) was 95 % of control; the T/C (dose: 100.0 mg/kg/injection, schedule: Q01DX005 (ip), vehicle: other) is 96 % of control; the T/C (dose: 200.0 mg/kg/injection, schedule: Q01DX005 (ip), vehicle: other) was 93 % of control.
For `Cc1cccc2c(C)c3cccc[n+]3cc12`, the T/C by setting is: (dose: 2.0 mg/kg/injection, schedule: Q01DX Z (ip), vehicle: carboxymethylcellulose (CMC)) 113 % of control; (dose: 4.0 mg/kg/injection, schedule: Q01DX Z (ip), vehicle: carboxymethylcellulose (CMC)) 110 % of control; (dose: 8.0 mg/kg/injection, schedule: Q01DX Z (ip), vehicle: carboxymethylcellulose (CMC)) 113 % of control and 123 % of control; (dose: 16.0 mg/kg/injection, schedule: Q01DX Z (ip), vehicle: carboxymethylcellulose (CMC)) 115 % of control and 119 % of control.
On to `O=C(/C=N/O)c1cccnc1`, for which the T/C under setting [9] was 97 % of control.
As for `CCOC(=O)c1ccc2c3c(ccc(C(=O)OCC)c13)C=C2`, the T/C by setting is: under setting [6], 88 % of control; under setting [7], 96 % of control; under setting [8], 100 % of control.
`Cc1cccc(C)c1NC(=O)N(Cc1ccccc1)Cc1ccccc1`: the T/C was 98 % of control under setting [1], 112 % of control under setting [2] and 110 % of control under setting [4].
The matching figures for `CC(=O)Nc1ccc(/C=N\NC(=O)Nc2ccccc2)cc1`: 90 % of control, 90 % of control and 91 % of control.
`COc1ccc(N=C(CCl)Nc2ccc(OC)cc2)cc1`: the T/C is 94 % of control (dose: 100.0 mg/kg/injection, schedule: Q04DX002 (ip), vehicle: Klucel (hydroxypropylcellulose) (HPC)); 88 % of control (dose: 200.0 mg/kg/injection, schedule: Q04DX002 (ip), vehicle: Klucel (hydroxypropylcellulose) (HPC)); 109 % of control (dose: 400.0 mg/kg/injection, schedule: Q04DX002 (ip), vehicle: Klucel (hydroxypropylcellulose) (HPC)).
As to `CCN(CC)S(=O)(=O)c1cccc(C(O)CC(O)(C(F)(F)F)C(F)(F)F)c1` (stereo not drawn), the T/C was 102 % of control (dose: 100.0 mg/kg/injection, schedule: Q04DX003 (ip), vehicle: other); 100 % of control (dose: 200.0 mg/kg/injection, schedule: Q04DX003 (ip), vehicle: other); 96 % of control (dose: 400.0 mg/kg/injection, schedule: Q04DX003 (ip), vehicle: other).
Turning to `CC(C)=CCCC(C)CCOc1ccc(C(C)C)cc1` (stereo not drawn), the T/C is, setting by setting: (dose: 100.0 mg/kg/injection, schedule: Q04DX002 (ip), vehicle: saline with Tween-80) 108 % of control; (dose: 200.0 mg/kg/injection, schedule: Q04DX002 (ip), vehicle: saline with Tween-80) 96 % of control; (dose: 400.0 mg/kg/injection, schedule: Q04DX002 (ip), vehicle: saline with Tween-80) 103 % of control.
With `S=C=Nc1ccc(Cl)cc1`, the T/C reads like this: (dose: 25.0 mg/kg/injection, schedule: Q04DX003 (ip), vehicle: saline with Tween-80) 107 % of control; (dose: 50.0 mg/kg/injection, schedule: Q04DX003 (ip), vehicle: saline with Tween-80) 96 % of control; under setting [9], 95 % of control and 101 % of control.
`CCOCCOCCOCCOc1ccc2c(c1)OCO2`: the T/C runs as follows: under setting [10], 95 % of control; under setting [11], 88 % of control; (dose: 400.0 mg/kg/injection, schedule: Q04DX002 (ip), vehicle: saline) 107 % of control.
Take `S=C1SCN(C(c2ccccc2)c2ccccc2)CN1C(c1ccccc1)c1ccccc1`: the T/C runs as follows: under setting [9], 95 % of control; (dose: 200.0 mg/kg/injection, schedule: Q04DX003 (ip), vehicle: saline with Tween-80) 94 % of control; (dose: 400.0 mg/kg/injection, schedule: Q04DX003 (ip), vehicle: saline with Tween-80) 96 % of control.
`O=C(Oc1ccc(N=Cc2ccccc2)cc1)Oc1ccc(N=Cc2ccccc2)cc1`: the T/C runs as follows: under setting [6], 86 % of control; under setting [7], 86 % of control; under setting [8], 95 % of control.
On to `CC#CC(C)(O)C(=O)OC` (stereo not drawn), for which the T/C runs as follows: (dose: 100.0 mg/kg/injection, schedule: Q01DX001 (ip), vehicle: other) 105 % of control; (dose: 200.0 mg/kg/injection, schedule: Q01DX001 (ip), vehicle: other) 98 % of control; (dose: 400.0 mg/kg/injection, schedule: Q01DX001 (ip), vehicle: other) 94 % of control.
On to `CCCN=Cc1ccccc1O.CCCN=Cc1ccccc1O.[Cu]`, for which the T/C is 94 % of control (dose: 9.5 mg/kg/injection, schedule: Q01DX001 (ip), vehicle: other); 100 % of control (dose: 19.0 mg/kg/injection, schedule: Q01DX001 (ip), vehicle: other); 97 % of control (dose: 38.0 mg/kg/injection, schedule: Q01DX001 (ip), vehicle: other).
In the case of `O=C(O)CCCC(CC(=O)O)c1ccccc1` (stereo not drawn), the T/C is 108 % of control (dose: 50.0 mg/kg/injection, schedule: Q04DX002 (ip), vehicle: saline); 104 % of control under setting [10]; 101 % of control under setting [11].
For `Cc1ccc(S(=O)(=O)OCC2OC(OCc3ccccc3)C3OC(C)(C)OC23)cc1` (stereo not drawn), the T/C runs as follows: (dose: 50.0 mg/kg/injection, schedule: Q04DX003 (ip), vehicle: Klucel (hydroxypropylcellulose) (HPC)) 91 % of control; under setting [3], 88 % of control; under setting [5], 92 % of control.
In the case of `C/C(=N/N=C(N)N)c1ccc(NC(=S)Nc2ccc(/C(C)=N/N=C(N)N)cc2)cc1`, the T/C (dose: 20.0 mg/kg/injection, schedule: Q01DX009 (ip), vehicle: water) was 176 % of control.
